Measurements: patent US9682960B2 (priority 2013, dated 2017)
Several values for one entry are separate records, joined by “and”; a condition that tells them apart may be missing. Equal values may be shown once. Read-outs that look alike come from different tables or passages of the source.

Assays:
[1] = target: Human Androgen Receptor (Homo sapiens (Human), UniProt P10275); assay: Androgen receptor assay: [3H]R1881 displacement, cytosol of HEK-293 cells transfected with hAR (hydroxylapatite assay); assay type: binding
[2] = tested on: Shionogi mouse mammary carcinoma cells; assay: In vitro androgenic/antiandrogenic activity: proliferation of Shionogi cells with or without DHT; assay type: cell-based
[3] = tested on: castrated (CX) immature male rats; assay: Systemic androgenic (agonistic) activity in orchidectomized (CX) immature male rats; assay type: in vivo, rat; settings: 0.1 mg/rat/po, 7 days; for CX Agonistic activity % Stimulation Bulbo: bulbocavernosus muscles weight; for CX Agonistic activity % Stimulation SV: seminal vesicles weight; for CX Agonistic activity % Stimulation Prostate: ventral prostate weight
Description: Immature male rats (Crl:CD(SD)Br) 22 to 24-day old weighting 60-80 g at start of treatment were obtained from Charles-River, Inc. (St-Constant, Quebec, Canada) and housed up to 5 per cage in plastic bins in a temperature (23±1° C.)- and light (12 h light/day, lights on at 7 h15)-controlled environment. The rats were fed rodent chow and tap water ad libitum. […] The day following their arrival, the designed animals were orchidectomized (CX) under Isoflurane anesthesia (Study Day 1) via the scrotal route and were then randomly assigned to groups of 3 to 5 animals. At the time of orchidectomy, one silastic implant of dihydrotestosterone (DHT; 1 cm length of pure DHT in silastic tubing having inner and outer diameter of 0.078 and 0.125 inches, respectively), was inserted subcutaneously in the dorsal area of animals assigned to the evaluation of antiandrogenic activity. In the case of intact animal experiments, the orchidectomy and the silastic implant installation are omitted.
Tested compounds were administered orally once daily for 7 days from Study Day 2 to Study Day 8 at doses generally ranging from 0.1 and 0.5 mg/animal. Compounds were either solubilized in dimethylsulfoxide (DMSO, 10% final concentration) and were administered as a solution/suspension in 0.9% NaCl-1% gelatin or were administered as suspensions in 0.4% aqueous methylcellulose. Animals of the control groups received the corresponding vehicle alone during the 7-day period. Some animals were treated with the antiandrogen Flutamide or Casodex as reference. The animals under isoflurane anesthesia were killed by cervical dislocation on day 9 of the study, approximately 24 h after the last dosing. The ventral prostate, seminal vesicles and bulbocavernosus muscles were rapidly dissected and weighed.
For calculations with intact animals, control DHT is replaced by control intact and the % stimulation is subtracted by 100%. W is the weight of the prostate, seminal vesicles or bulbocavernosus muscles. Discussion

[4] = relative binding affinity, R1881 = 100, transfected cells
[5] = relative binding affinity, R1881 = 100, […]
[6] = Mus musculus, read-out: Shionogi Antiandrogenic Activity IC50, DHT (0.3 nM)-stimulated cell number

Chain of Human Androgen Receptor (P10275 whole entry): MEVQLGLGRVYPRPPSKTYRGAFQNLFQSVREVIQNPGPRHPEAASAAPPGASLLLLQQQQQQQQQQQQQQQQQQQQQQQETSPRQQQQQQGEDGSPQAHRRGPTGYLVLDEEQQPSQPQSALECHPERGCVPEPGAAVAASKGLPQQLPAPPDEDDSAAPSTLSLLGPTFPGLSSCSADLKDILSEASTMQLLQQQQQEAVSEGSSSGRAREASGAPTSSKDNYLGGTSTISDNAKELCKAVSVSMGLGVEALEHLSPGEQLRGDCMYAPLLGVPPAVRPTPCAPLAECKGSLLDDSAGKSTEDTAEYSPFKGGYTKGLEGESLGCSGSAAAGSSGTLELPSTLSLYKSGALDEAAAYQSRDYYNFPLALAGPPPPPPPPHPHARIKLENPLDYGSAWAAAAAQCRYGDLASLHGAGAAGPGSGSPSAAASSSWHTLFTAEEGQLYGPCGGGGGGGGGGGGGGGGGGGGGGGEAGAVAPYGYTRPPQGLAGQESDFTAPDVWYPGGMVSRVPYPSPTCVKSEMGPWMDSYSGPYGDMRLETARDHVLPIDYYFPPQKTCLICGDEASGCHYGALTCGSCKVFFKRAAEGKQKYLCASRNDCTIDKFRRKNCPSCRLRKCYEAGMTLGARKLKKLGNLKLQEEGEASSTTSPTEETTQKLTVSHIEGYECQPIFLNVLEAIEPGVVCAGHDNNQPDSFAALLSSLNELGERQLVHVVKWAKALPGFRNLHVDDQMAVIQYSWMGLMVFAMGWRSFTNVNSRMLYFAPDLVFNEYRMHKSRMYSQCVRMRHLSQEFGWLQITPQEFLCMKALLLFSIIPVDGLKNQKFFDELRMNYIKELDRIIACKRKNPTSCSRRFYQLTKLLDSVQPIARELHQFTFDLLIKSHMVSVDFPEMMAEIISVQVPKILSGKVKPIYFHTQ

Structure (SMILES)	Human Androgen Receptor Binding RBA (%) R1881 = 100 [1, 4]	Human Androgen Receptor Binding RBA (%) R1881 = 100 [1, 5]	IC50 [2, 6]	also measured
CC1(C)C(=O)N(c2ccc(C#N)c(C(F)(F)F)c2)C(=S)N1CCCOc1ccc(CN2CCC(O)C2)cc1 (stereo not drawn) [EM-7365, reference compound]	24%			IC50 ([2]; DHT (0.3 nM)-stimulated cell number, read-out: Shionogi Antiandrogenic Activity IC50): 6 nM
CC1(C)C(=O)N(c2ccc(C#N)c(C(F)(F)F)c2)C(=S)N1CCCOc1ccc(-c2cccnc2)cc1 [EM-8840]		1090 ± 500 (n = 2) %	24 ± 6 nM	
CC1(C)C(=O)N(c2ccc(C#N)c(C(F)(F)F)c2)C(=S)N1CCCOc1ccc(-c2ccncc2)cc1 [EM-8841]		1200 ± 330 (n = 2) %	73 ± 5 nM	
CC1(C)C(=O)N(c2ccc(C#N)c(C(F)(F)F)c2)C(=S)N1CCCOc1ccc(-c2ccncc2)c(F)c1 [EM-8851]	3310% and 3310 ± 1780 (n = 2) %		77 ± 20 nM	
CC1(C)C(=O)N(c2ccc(C#N)c(C(F)(F)F)c2)C(=S)N1CCCOc1cccc(-c2ccncc2)c1 [EM-8871]		558 ± 102 (n = 2) %	66 nM	
CC1(C)C(=O)N(c2ccc(C#N)c(C(F)(F)F)c2)C(=S)N1CCCOc1ccc(-c2ccncc2)cc1F [EM-8872]		723 ± 59 (n = 2) %	36 nM	
CC1(C)C(=O)N(c2ccc(C#N)c(C(F)(F)F)c2)C(=S)N1CCCOc1ccc(-c2ccncc2)c(Cl)c1 [EM-8888]	1880 ± 1040 (n = 2) %			IC50 ([2]; Mus musculus, DHT (0.3 nM)-stimulated cell number, read-out: Shionogi Antiandrogenic Activity IC50): 111 nM
CC1(C)C(=O)N(c2ccc(C#N)c(C(F)(F)F)c2)C(=S)N1CCCOc1ccc(-c2ccncc2)c(C(F)(F)F)c1 [EM-8890]	59 ± 25 (n = 2) %		13.2 nM	
CC1(C)C(=O)N(c2ccc(C#N)c(C(F)(F)F)c2)C(=S)N1CCCOc1ccc(-c2ccncc2)cc1C(F)(F)F [EM-8900]		130 ± 60 (n = 2) %	2.6 to 4.3 nM	stimulation at 10^−7M on basal Shionogi cell proliferation (in words) ([2]; basal (no DHT), 10^−7M): none of these compounds has any activity; IC50 ([2]; read-out: Shionogi Antiandrogenic Activity IC50, DHT (0.3 nM)-stimulated cell number): 3.8 nM
Cc1c(N2C(=O)N(CCCOc3ccc(-c4ccncc4)cc3F)C(C)(C)C2=O)ccc(C#N)c1F [EM-9204]	22%			
Cc1c(N2C(=O)N(CCCOc3ccc(-c4cc[n+]([O-])cc4)c(F)c3)C(C)(C)C2=O)ccc(C#N)c1F [EM-9208]	2.2%			
CC1(C)C(=O)N(c2ccc(C#N)c(Cl)c2)C(=O)N1CCCOc1ccc(-c2cc[n+]([O-])cc2)cn1 [EM-9225]				Human Androgen Receptor Binding RBA (%) R1881 = 100 [1]: 0.8%
CC1(C)C(=O)N(c2ccc(C#N)c(Cl)c2)C(=O)N1CCCOc1ccc(-c2ccncc2)cc1Cl.Cl [EM-9287]		125 ± 9 (n = 3) %		
CC1(C)C(=O)N(c2ccc(C#N)c(Cl)c2)C(=O)N1CCCOc1ccc(-c2cc[n+]([O-])cc2)cc1Cl.Cl [EM-9288]		24 ± 8 (n = 2) %		
Cc1c(N2C(=O)N(CCCCc3ccc(-c4ccncc4)cc3)C(C)(C)C2=O)ccc(C#N)c1Cl [EM-9336]		32.3%		CX Agonistic activity % Stimulation Bulbo [3]: 59%; CX Agonistic activity % Stimulation SV [3]: 8%; CX Agonistic activity % Stimulation Prostate [3]: 27%
Cc1c(N2C(=O)N(CCOc3ccc(-c4ccncc4)cc3)C(C)(C)C2=O)ccc(C#N)c1Cl [EM-9337]		28.3%		CX Agonistic activity % Stimulation Bulbo [3]: 95%; CX Agonistic activity % Stimulation SV [3]: 17%; CX Agonistic activity % Stimulation Prostate [3]: 33%
Cc1c(N2C(=O)N(CCOc3ccc(-c4cc[n+]([O-])cc4)cc3)C(C)(C)C2=O)ccc(C#N)c1Cl [EM-9339]		4.0%		CX Agonistic activity % Stimulation Bulbo [3]: 68%; CX Agonistic activity % Stimulation SV [3]: 12%; CX Agonistic activity % Stimulation Prostate [3]: 27%
CC(C)(O)C(=O)Nc1ccc([N+](=O)[O-])c(C(F)(F)F)c1 [OH-FLU, hydroxyflutamide, reference compound]	0.21 ± 0.09 (n = 3) %			Human Androgen Receptor Binding RBA (%) R1881 = 100 ([1]; relative binding affinity, R1881 = 100, transfected cells, listed as hydroxyflutamide): 0.21%
